How the values were obtained:
[1] = system: Plasmodium falciparum (ATCC 30932, FCR-3 strain); experiment: Evaluation of antimalarial activity (infected human erythrocytes, Giemsa staining); assay type: cell-based; conditions: 37° C., 72 hours, values in FIG. 8 only, stated in words
Experimental: Human erythrocyte infected with malaria parasite (Plasmodium falciparum (ATCC 30932, FCR-3 strain)) is prepared on a 24-well culture plate and 5 μl each of DMSO solutions of antimalarial drug candidate compounds prepared at various concentrations is added. Thereafter, the erythrocyte is cultured at 37° C. for 72 hours. A part of the cultured erythrocyte is subjected to Giemsa staining. Then, the number of cells infected with malaria is counted under microscope. EC50 values are calculated based on the measurement values.

[2] = system: Mouse mammary tumor FM3A cells; experiment: Evaluation of cytotoxicity; assay type: cell-based; conditions: 37° C., 48 hours, values in FIG. 8 only, stated in words
Experimental: (2) Evaluation Method of Cytotoxicity (See Hye-Sook Kim; Yasuharu Shibata; Yusuke Wataya; Kaoru Tsuchida; Araki Masuyama; Masatomo Nojima. J. Med. Chem. 1999, 42, 2604-2609)
The concentration of […] (Mouse mammary tumor FM3A cells) is adjusted to 5×10^4 cells/ml, and 5 μl of DMSO solutions of antimalarial drug candidate compounds prepared at various concentrations is added. The cells area cultured at 37° C. for 48 hours and then, the number of surviving cells is counted by the use of microcell counter CC-130 (To a Medical Electric Co.). The measurement results are compared with the results obtained from the control experiment so as to calculate EC50 value.

## CN(CCNC(=O)C=Cc1c[nH]cn1)CCNc1ccnc2cc(Cl)ccc12 [uro-2Q, N-(2-{[2-(7-Chloro-quinolin-4-ylamino)ethyl]methylamino}ethyl)-3-(1H-imidazol-4-yl)acrylamide]
[1]
  antimalarial activity (EC50): higher antimalarial activity
[2]
  cytotoxicity (EC50): lower toxicity as compared with existing drugs

Reference: patent US7973027B2, “Compound with antimalarial activity and antimalarial drug containing the same as active ingredient” (Nagoya City University, priority 2006, dated 2011)
